According to patent US20180036355A1 (priority 2004, published 2018):

Tests used:
[1] = test system: μ receptors for the opioids (MOR); assay: mRNA expression of the μ receptors for the opioids in epithelial cells stimulated by microorganisms (real-time PCR); assay type: cell-based
[2] = test system: IL-1β; assay: Colonic IL-1 beta mRNA expression in mice (real-time PCR); assay type: in vivo, Balb/c mice
[3] = test system: CB1 cannabinoid receptors; assay: mRNA expression of the CB1 receptors in epithelial cells stimulated by microorganisms (real-time PCR); assay type: cell-based
[4] = test system: mu-opioid receptor (MOR); parameters: species or system Balb/c mice; details: mouse, in vivo
[5] = test system: CB2; assay: CB2 immunohistochemistry of colonic epithelial cells of mice; assay type: in vivo, Balb/c mice; details: mouse colon sections, 10^9 CFU once a day for fourteen days
[6] = test system: KC; assay: Colonic KC mRNA expression in mice (real-time PCR); assay type: in vivo, Balb/c mice
[7] = test system: CB2 receptors; assay: mRNA expression of the CB2 receptors in epithelial cells stimulated by microorganisms (real-time PCR); assay type: cell-based
[8] = test system: TNFα; assay: Colonic TNF alpha mRNA expression in mice (real-time PCR); assay type: in vivo, Balb/c mice
[9] = test system: MOR; assay: MOR immunohistochemistry of colonic epithelial cells of mice; assay type: in vivo, Balb/c mice; details: mouse colon sections, 10^9 CFU once a day for fourteen days
[10] = test system: CB1; assay: CB1 immunohistochemistry of colonic epithelial cells of mice; assay type: in vivo, Balb/c mice; details: mouse colon sections, 10^9 CFU once a day for fourteen days
[11] = Balb/c mice, oral 10^9 CFU during 15 days
[12] = mouse colon, 14 days of administration

Compound	effect of NFkappaB pathway inhibition on the expression of MOR ([1]; HT-29 cells pre-treated with CAPE, stimulated with L. acidophilus)	diminution of the expression of colonic inflammatory cytokines (IL-1 beta) [2, 11]	decreased expression of IL-1β mRNA level compared to controls [2, 12]	induction of the μ receptors for the opioids (in words) ([1]; ATCC HTB-38 epithelial cells (FIG. 1), comparator TNF-α 10 ng/ml)	increase in the basal expression level of the mRNA of the μ receptors for the opioids ([1]; ATCC HTB-38 epithelial cells, after 3 hours' incubation (FIG. 1))	MOR expression in the epithelial cells (in words) ([1]; HT-29 or Caco-2 cells, 100 bacteria/cell, from the first hour of incubation)	increase in the basal expression level of the mRNA of CB1 ([3]; ATCC HTB-38 epithelial cells, after 3 hours' incubation (FIG. 2))	CB1 expression ([3]; HT-29 or Caco-2 cells, 100 bacteria/cell, 0 to 6 hours, p<0.05)	increase of MOR mRNA expression in the colon vs untreated animals [4]	expression of MOR mRNA at the colonic level ([4]; po)	epithelial stained cells for CB2 [5]	diminution of the expression of colonic inflammatory cytokines (KC) [6, 11]	decreased expression of KC mRNA level compared to controls [6, 12]	increase in the basal expression level of the mRNA of the CB2 receptors ([7]; ATCC HTB-38 epithelial cells, after 3 hours' incubation (FIG. 3))	CB2 expression ([7]; HT-29 or Caco-2 cells, 100 bacteria/cell, 0 to 6 hours, p<0.01)	diminution of the expression of colonic inflammatory cytokines (TNF alpha) [8, 11]	decreased expression of TNFα mRNA level compared to controls [8, 12]	epithelial stained cells for MOR [9]	epithelial stained cells for CB1 [10]
O=C(/C=C/c1ccc(O)c(O)c1)OCCc1ccccc1 [CAPE, caffeic acid phenetyl ester, reference compound]	did not induce modifications of the expression of MOR																		
Lactobacillus acidophilus		at least 50%	More than 50%	of the same order of magnitude as that obtained by TNF-α	approximately 1000 fold	strong MOR expression	approximately 1000 fold	848±180	24 fold	24±0.75	40±7%	at least 50%	More than 50%	approximately 100 fold	1498±333	at least 50%	More than 50%	60±10%	60±8%
